In ChEMBL document CHEMBL4229507, “Identification of influenza PA-Nter endonuclease inhibitors using pharmacophore- and docking-based virtual screening” (Bioorg Med Chem, 2018) one finds IC50, inhibition and EC50 data, which are given here for six compounds.

Test [1] concerns the target Polymerase acidic protein (Influenza A virus (strain A/X-31 H3N2), UniProt Q9IQ47). Description: (§1) Inhibition of recombinant Influenza A virus (A/X-31(H3N2)) N-terminal 6xHis-tagged PA-Nter (1 to 217 residues) expressed in Escherichia coli BL21-CodonPlus cells using M13mp18 as substrate after 1 hr by ethidium bromide staining-based agarose gel electrophoresis.
The target of test [2] is Polymerase acidic protein (Influenza A virus (strain A/X-31 H3N2)) (UniProt Q9IQ47). The test is described as §1.
Test [3] concerns unidentified influenza virus. The test can be described thus: Antiviral activity against Influenza virus assessed as inhibition of viral transcription.
Test [4] deals with Influenza A virus. Description: Antiviral activity against Influenza A virus (A/Puerto Rico/8/1934(H1N1)) infected in MDCK cells after 24 hrs by immunofocus assay. The class given is functional, organism-based.

The IC50 is the midpoint of a concentration-inhibition curve. Turning to `NS(=O)(=O)c1ccc(C(=O)NCCc2ccc(O)c(O)c2)cc1`, the IC50 in test [1] was determined as 12 µM. Moreover, in test [2], the inhibition entry is “Dose-dependent effect”.
For the compound `O=C(O)C(=O)CC(=O)c1ccccc1`, the IC50 in test [1] was 3.2 µM.
On to `O=C(O)/C(O)=C/C(=O)C1(Cc2ccc(Cl)cc2)CCN(Cc2ccccc2)CC1`, for which, in test [3], the IC50 was 0.43 µM.
For `O=C(C(=O)N1CCC(Cc2ccccc2)CC1)c1c[nH]c2cc(O)c(O)cc12`, the IC50 in test [1] was determined as 266 µM.
With `O=C(CCN1CCC(Cc2ccc(F)cc2)CC1)c1c[nH]c2cc(O)c(O)cc12`, in test [1], the IC50 turned out to be 243 µM.
By EC50 is commonly meant the concentration at which the effect is half-maximal. Low readings indicate greater potency, high ones weaker potency. For `O=c1[nH]c(-c2ccc(F)cc2)c(-c2ccc(-c3nnn[nH]3)cc2)cc1O`, the EC50 in test [4] amounted to 11.4 µM.
